Data: patent US8410068B2, “Compounds for the treatment or alleviation of edema, and methods for their use” (Index Pharmaceuticals AB, priority 2007, dated 2013)
Several values for one entry are separate records, joined by “and”; a condition that tells them apart may be missing. Identical values can stand only once.

Tests used:
[1] = test system: OVA induced airway inflammation; experiment: Ovalbumin (OVA) induced allergic airway inflammation, BAL fluid cell counts; format: in vivo, Balb/c mice
Protocol: Mice were sensitized intraperitoneally with 200 μL OVA/aluminium hydroxide gel (1:3) on day 0 and 12 (see FIG. 6). OVA (chicken egg albumin grade V, Sigma, St. Louis, Mo.) was dissolved in saline and mixed with aluminium hydroxide gel to a concentration of 50 μg/mL by rotation at 4° C. for 3 h. On days 23, 26, 30 and 33 (see FIG. 6), mice were challenged in the lungs by inhalation of aerosolized OVA for 30 minutes using a Batelle exposure chamber. Aerosols were generated by a compressed-air nebulizer (Collison 6-jet) at airflow 7.4 L/min using a nebulizer concentration of 10 mg/mL OVA dissolved in PBS (Sigma, St Louis, Mo., USA). The control group with non-sensitized animals received no other treatment than aerosolized OVA at days 23, 26, 30 and 33.
In this OVA model (FIG. 6), a total of 4 oligonucleotides were tested, IDX9025, IDX9038, IDX9053 (Table 1, SEQ ID NO 2-4) and IDX0150 (Table 3, SEQ ID NO 11). The oligonucleotides were synthesized by biomers.net GmbH, Ulm, Germany and stored frozen at −20° C. The oligonucleotides were diluted with PBS to the working concentration (1,247 μg/μL) and kept at −20° C. until the first day of instillation, thereafter they were placed at 4° C.
In a first experiment, both prophylactic and therapeutic protocols were tested (see FIG. 6). The drug treatment consisted of intranasal instillations of IDX0150 (1,247 μg/μL, provided by InDex Pharmaceuticals AB, Stockholm, Sweden) on days 16 and 21 (prophylactic protocol), on days 30 and 33 (therapeutic protocol A) or on days 30 and 34 (therapeutic protocol B). The instillations in the therapeutic protocols (A & B) on days 30 and 33 were given 4 h after aerosol challenge. The second instillation in protocol B on day 34 was given 24 h after the last aerosol challenge. The drug was administered in 40 μL PBS giving a dose of ˜50 μg/mice (49.88 μg/mice). The two sensitized sham-treatment groups were instilled with PBS, the same total volume as for the treatment groups, according to either the prophylactic protocol (days 16 and 21) or to the therapeutic protocol A (days 30 and 33).
In a second experiment, since administration of IDX0150 in the first experiment using prophylactic protocol (FIG. 6) gave a significant reduction of airway inflammation (FIG. 7), three other substances were tested with the same protocol. The drug treatment consisted of intranasal instillations of IDX9025, IDX9038 and IDX9053 (Table 1) (1,247 μg/μL, provided by InDex Pharmaceuticals AB) on days 16 and 21 (see FIG. 6, prophylactic protocol). All substances were administered in 40 μL PBS giving a dose of ˜50 μg/mice (49.88 μg/mice). The two sensitized sham-treatment groups were instilled with PBS, the same total volume as for the treatment groups, according to the prophylactic protocol (days 16 and 21).
Mice were killed by cervical dislocation 42 h after the last OVA aerosol challenge. The trachea was cannulated with polyethylene tubing (Becton Dickinson, Sparks, Md., USA) and bronchoalveolar lavage (BAL) was performed using 4×1 mL aliquots of ice-cold Hank's balanced salt solution (HBSS) (Sigma, St Louis, Mo., USA). The BAL fluid was centrifuged (400 g, 10 min, 4° C.) and the BAL fluid cells were resuspended in 0.4 mL PBS. The total number of leukocytes counted using tryphan blue exclusion in a Barker chamber. Duplicate Cytospin (Cytospin 3, Shandon, Runcorn, UK) preparations of BAL fluid cells were stained with May Grünewald Giemsa for differential counts, using standard morphological criteria.
Statistical comparisons were performed using One-way analysis of variance (ANOVA) using Dunnett's post hoc correction to compare with sensitized PBS treated control mice (GraphPad Prism 3). Data are shown as mean±standard deviation. P<0.05 was considered significant.

[2] = test system: thioglycolate induced pleurisy; experiment: Thioglycolate induced pleurisy; format: in vivo, C57/Bl6 mice; details: 50 μg/mouse i.p. 20 min before induction of pleurisy
Protocol: Mice were anesthetized by an intraperitoneal injection of 0.15-0.20 ml of a mixture of ketamine (Ketalar® Parke-Davis; 25 mg/ml) and xylazine (Narcoxyl Vet.® Veterinaria AG; 5 mg/ml).
The left jugular vein was cannulated with polyethylene tubing (PE10) for intravenous administration (i.v.). A skin incision was made on the right side of the chest. Following dissection of the underlying muscle, pleurisy (inflammation of the lung sack) was induced by a single intrapleural injection of 100 μl of thioglycolate (Sigma). Sterile PBS was used as negative control.
FITC-conjugated dextran in PBS (100 μl, 30 mg/ml) was injected i.v. After 4 h, the animals were euthanized with an overdose of anaesthesia, the chest was carefully opened and the exudate was removed by aspiration and the volume noted. The thorax was then rinsed with 1 ml of ice-cold 3 mM EDTA in PBS. Exudate which was contaminated with red blood cells was discarded.
The exudate and rinsed material was centrifuged at 1500 g for 5 min and the supernatant was used for measurement of fluorescence intensity in a fluorometer (Fluoroskan Acsent, LabSystems) and clearance volume of FITC-dextran was calculated. […]
Cells from the exudate were stained with neutrophil and macrophage specific antibodies and were analyzed by flow cytometry (FACSort and CellQuest software, BD). […]

For “G*G*A*ACAGTTCGTCCAT*G*G*C (phosphorothioate linkages, as printed in the source, key not given here) [IDX0150, oligonucleotide used as control; * = phosphorothioate modification]”, the “migration of eosinophils into the BAL fluid” value ([1]; prophylactic protocol, 50 μg/animal intranasal on day 16 and 21, P<0.001) was “significantly reduce”, the “migration of leukocytes into the BAL fluid” value ([1]; prophylactic protocol, 50 μg/animal intranasal on day 16 and 21, P<0.05) was “significantly reduce” and the “effect on BAL fluid cells, therapeutic arm” value ([1]; therapeutic protocols, 50 μg intranasal, days 30 and 33 (A) or 30 and 34 (B)) was “no statistically proven effects”. For the same substance, the “reduction of number of PMN in pleural exudates” value ([2]; compared to inflamed mice (PBS)) was 42% and 40.9% and the “reduction in clearance volume of pleural edema (vascular permeability)” value ([2]; compared to thioglycolate treatment) was 68.2% and 69.2%.
